Results reported in patent US12186290B2, “Methods for the treatment of glioblastoma multiforme” (priority 2017, dated 2025).

Test: solubility in water
Assay type: physicochemical

For `NC(=O)C(CCC(=O)[O-])NC(=O)Cc1ccccc1.[Na+]` (stereo not shown) [Iso-PG, phenylacetylisoglutaminate sodium], the solubility in water was “soluble in water”.
